Data: US20190308962A1, “FXR (NR1H4) Modulating Compounds” (GILEAD SCIENCES, INC., priority 2016, published 2019)

Key:
[1] = target: T1, FXR ligand binding domain (Homo sapiens, UniProt Q96RI1); assay: Mammalian one hybrid (M1H) Gal4 reporter gene assay in HEK293 cells; assay type: cell-based; conditions: Gal4-FXR-LBD, luciferase reporter, 16 h
T1 construct: expressed in transfected cells; host or cells: HEK293 (DSMZ), transient transfection with pCMV-BD-FXR-LBD, pFR-Luc and pRL-CMV
T1 sequence (Q96RI1 187-472 isoform Q96RI1-2): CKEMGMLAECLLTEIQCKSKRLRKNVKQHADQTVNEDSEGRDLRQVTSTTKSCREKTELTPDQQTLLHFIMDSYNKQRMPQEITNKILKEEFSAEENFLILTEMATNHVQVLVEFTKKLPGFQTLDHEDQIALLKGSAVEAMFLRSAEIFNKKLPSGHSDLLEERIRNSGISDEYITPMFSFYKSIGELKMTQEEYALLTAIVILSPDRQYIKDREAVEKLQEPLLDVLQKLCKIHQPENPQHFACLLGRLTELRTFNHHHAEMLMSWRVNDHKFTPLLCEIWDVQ
Protocol: Determination of a ligand mediated Gal4 promoter driven transactivation to quantify ligand binding mediated activation of FXR was performed as follows.
The cDNA part encoding the FXR ligand binding domain was cloned into vector pCMV-BD (Stratagene) as a fusion to the yeast GAL4 DNA binding domain under the control of the CMV promoter. The amino acid boundaries of the ligand binding domain were amino acids 187-472 of Database entry NM_005123 (RefSeq). The plasmid pFR-Luc (Stratagene) was used as the reporter plasmid, containing a synthetic promoter with five tandem repeats of the yeast GAL4 binding sites, driving the expression of the Photinus pyralis (American firefly) luciferase gene as the reporter gene. In order to improve experimental accuracy the plasmid pRL-CMV (Promega) was cotransfected. pRL-CMV contains the constitutive CMV promoter, controlling the expression of the Renilla reniformis luciferase. All Gal4 reporter gene assays were done in HEK293 cells (obtained from DSMZ, Braunschweig, Germany) grown in MEM with L-Glutamine and Earle's BSS supplemented with 10% fetal bovine serum, 0.1 mM nonessential amino acids, 1 mM sodium pyruvate, and 100 units Penicilin/[…] per mL at 37° C. in 5% CO2. Medium and supplements were obtained from Invitrogen. For the assay, […] cells were plated per well in 96 well plates in 100 μL per well MEM without Phenol Red and L-Glutamine and with Earle's BSS supplemented with 10% charcoal/dextran treated FBS (HyClone, South Logan, Utah), 0.1 mM nonessential amino acids, 2 mM glutamine, 1 mM sodium pyruvate, and 100 units Penicilin/[…] per mL, incubated at 37° C. in 5% CO2. The following day the cells were >90% confluence. Medium was removed and cells were transiently transfected using 20 μL per well of an OptiMEM-polyethylene-imine-based transfection-reagent (OptiMEM, Invitrogen; Polyethyleneimine, Aldrich Cat No. 40, 827-7) including the three plasmids described above. MEM with the same composition as used for plating cells was added 2-4 h after addition of transfection mixture. Then compound stocks, prediluted in MEM were added (final vehicle concentration not exceeding 0.1%). Cells were incubated for additional 16 h before firefly and renilla luciferase activities were measured sequentially in the same cell extract using a Dual-Light-Luciferase-Assay system (Dyer et al., Anal. Biochem. 2000, 282, 158-161). All experiments were done in triplicates.

[2] = target: T2, human FXR alpha ligand binding domain (Homo sapiens, UniProt Q96RI1); assay: FRET activity assay (ligand mediated cofactor peptide interaction, LANCE); assay type: biochemical; conditions: GST-FXR-LBD / biotinylated SRC-1 peptide (676-700)
T2 construct: made in house; host or cells: E. coli BL21(DE3), vector pDEST15
T2 sequence (Q96RI1 187-472 isoform Q96RI1-2): T1 sequence (Q96RI1 187-472 isoform Q96RI1-2)
Protocol: Determination of a ligand mediated cofactor peptide interaction to quantify ligand binding to the nuclear receptor FXR was performed as follows.
Preparation of human FXR alpha ligand binding domain: The human FXRalpha LBD was expressed in E. coli strain BL21(DE3) as an N-terminally GST tagged fusion protein. The DNA encoding the FXR ligand binding domain was cloned into vector pDEST15 (Invitrogen). Expression was under control of an IPTG inducible T7 promoter. The amino acid boundaries of the ligand binding domain were amino acids 187-472 of Database entry NM_005123 (RefSeq). Expression and purification of the FXR-LBD: An overnight preculture of a transformed E. coli strain was diluted 1:20 in LB-Ampicillin medium and grown at 30° C. to an optical density of OD600=0.4-0.6. Gene expression was then induced by addition of 0.5 mM IPTG. Cells were incubated an additional 6 h at 30° C., 180 rpm. Cells were collected by centrifugation (7000×g, 7 min, rt). Per liter of original cell culture, cells were resuspended in 10 mL lysis buffer (50 mM Glucose, 50 mM Tris pH 7.9, 1 mM EDTA and 4 mg/mL lysozyme) and left on ice for 30 min. Cells were then subjected to sonication and cell debris removed via centrifugation (22000×g, 30 min, 4° C.). Per 10 mL of supernatant 0.5 mL prewashed Glutathione 4B sepharose slurry (Qiagen) was added and the suspension kept slowly rotating for 1 h at 4° C. Glutathione 4B sepharose beads were pelleted by centrifugation (2000×g, 15 sec, 4° C.) and washed twice in wash buffer (25 mM Tris, 50 mM KCl, 4 mM MgCl2 and 1M NaCl). The pellet was resuspended in 3 mL elution buffer per liter of original culture (elution buffer: 20 mM Tris, 60 mM KCl, 5 mM MgCl2 and 80 mM glutathione added immediately prior to use as powder). The suspension was left rotating for 15 min at 4° C., the beads pelleted and eluted again with half the volume of elution buffer than the first time. The eluates were pooled and dialysed overnight in 20 mM Hepes buffer (pH 7.5) containing 60 mM KCl, 5 mM MgCl2 as well as 1 mM dithiothreitol and 10% (v/v) glycerol. The protein was analysed by SDS-Page.
The method measures the ability of putative ligands to modulate the interaction between the purified bacterial expressed FXR ligand binding domain (LBD) and a synthetic biotinylated peptide based on residues 676-700 of SRC-1 (LCD2, 676-700). The sequence of the peptide used was B-[…]-COOH (SEQ ID NO: 1) where the N-terminus was biotinylated (B). The ligand binding domain (LBD) of FXR was expressed as fusion protein with GST in BL-21 cells using the vector pDEST15. Cells were lysed by sonication, and the fusion proteins purified over glutathione sepharose (Pharmacia) according to the manufacturers instructions. For screening of compounds for their influence on the FXR-peptide interaction, the Perkin Elmer LANCE technology was applied. This method relies on the binding dependent energy transfer from a donor to an acceptor fluorophor attached to the binding partner of interest. For ease of handling and reduction of background from compound fluorescence LANCE technology makes use of generic fluorophore labels and time resolved detection Assays were done in a final volume of 25 μL in a 384 well plate, in a Tris-based buffer (20 mM Tris-HCl pH 7.5; 60 mM KCl, 5 mM MgCl2; 35 ng/μL BSA), containing 20-60 ng/well recombinantly expressed FXR-LBD fused to GST, 200-600 nM N-terminally biotinylated peptide, representing SRC1 aminoacids 676-700, 200 ng/well Streptavidin-xlAPC conjugate (Prozyme) and 6-10 ng/well Eu W1024-antiGST (Perkin Elmer). DMSO content of the samples was kept at 1%. After generation of the assay mix and diluting the potentially FXR modulating ligands, the assay was equilibrated for 1 h in the dark at rt in FIA-plates black 384 well (Greiner). The LANCE signal was detected by a Perkin Elmer VICTOR2V™ Multilabel Counter. The results were visualized by plotting the ratio between the emitted light at 665 and 615 nm. […]

[3] = test system: FGF19; assay: In vivo pharmacodynamics in cynomolgus monkey: plasma FGF19 (ELISA); conditions: oral
Excerpt: (§1) Each dosing group consisted of three male Cynomolgus monkeys.

[4] = Plasma drug exposure in cynomolgus monkey after oral dosing; assay type: in vivo
Excerpt: as §1

SMILES | EC50 [1] [nM] | EC50 [2] [nM] | Plasma FGF19 response to increasing doses ([3]; 3 to 300 mg/kg) | Plasma FGF19 Cmax ([3]; highest dose (300 mg/kg)) [pg/mL] | Maximal AUC, compared between the two compounds ([4]; 300 mg/kg) | Plasma exposure with increasing doses ([4]; 3 to 300 mg/kg)
Cc1onc(-c2c(Cl)cc(F)cc2Cl)c1COc1ccc(C2(O)CN(c3ncc(C(=O)O)cc3F)C2)c(Cl)c1 [Example 4, 6-(3-(2-chloro-4-((3-(2,6-dichloro-4-fluorophenyl)-5-methylisoxazol-4-yl)methoxy)phenyl)-3-hydroxyazetidin-1-yl)-5-fluoronicotinic Acid] | 176 | 35 | – | – | – | –
O=C(O)c1cnc(N2CC(O)(c3ccc(OCc4c(-c5c(Cl)cc(F)cc5Cl)noc4C4CC4)cc3Cl)C2)c(F)c1 [Example 3, 6-(3-(2-chloro-4-((5-cyclopropyl-3-(2,6-dichloro-4-fluorophenyl)isoxazol-4-yl)methoxy)phenyl)-3-hydroxyazetidin-1-yl)-5-fluoronicotinic Acid] | 3.8 | 7.4 | dose-dependently increased plasma FGF19 | 16000 | comparable | Dose-dependent increases in plasma exposure
O=C(O)CNC(=O)c1cnc(N2CC(O)(c3ccc(OCc4c(-c5c(Cl)cc(F)cc5Cl)noc4C4CC4)cc3Cl)C2)c(F)c1 [Example 8, (6-(3-(2-chloro-4-((5-cyclopropyl-3-(2,6-dichloro-4-fluorophenyl)isoxazol-4-yl)methoxy)phenyl)-3-hydroxyazetidin-1-yl)-5-fluoronicotinoyl)glycine] | 1260 | 8.1 | – | – | – | –
O=C(NCCS(=O)(=O)O)c1cnc(N2CC(O)(c3ccc(OCc4c(-c5c(Cl)cc(F)cc5Cl)noc4C4CC4)cc3Cl)C2)c(F)c1 [Example 7, 2-(6-(3-(2-chloro-4-((5-cyclopropyl-3-(2,6-dichloro-4-fluorophenyl)isoxazol-4-yl)methoxy)phenyl)-3-hydroxyazetidin-1-yl)-5-fluoronicotinamido)ethane-1-sulfonic Acid] | 1700 | 6.9 | – | – | – | –
O=C(O)c1ccnc(N2CC(O)(c3ccc(OCc4c(-c5ccc(F)cc5F)noc4C4CC4)cc3Cl)C2)c1 [Example 1, 2-(3-(2-chloro-4-((5-cyclopropyl-3-(2,4-difluorophenyl)isoxazol-4-yl)methoxy)phenyl)-3-hydroxyazetidin-1-yl)isonicotinic Acid] | 3000 | 263 | – | – | – | –
COc1ncc(C(=O)O)cc1[C@H]1C[C@](O)(c2ccc(OCc3c(-c4c(Cl)cc(F)cc4Cl)noc3C3CC3)cc2Cl)C1 [Example 6, 5-((1S,3S)-3-(2-chloro-4-((5-cyclopropyl-3-(2,6-dichloro-4-fluorophenyl)isoxazol-4-yl)methoxy)phenyl)-3-hydroxycyclobutyl)-6-methoxynicotinic Acid] | 353 | 49 | – | – | – | –
O=C(O)c1cnc(N2CC(O)(c3ccc(OCc4c(C5CC5)cnn4-c4c(Cl)cc(F)cc4Cl)cc3Cl)C2)c(F)c1 [Example 5, 6-(3-(2-chloro-4-((4-cyclopropyl-1-(2,6-dichloro-4-fluorophenyl)-1H-pyrazol-5-yl)methoxy)phenyl)-3-hydroxyazetidin-1-yl)-5-fluoronicotinic Acid] | 8.6 | 18 | – | – | – | –
O=C(O)c1ccnc(N2CC(O)(c3ccc(OCc4c(-c5c(Cl)cc(F)cc5Cl)noc4C4CC4)cc3Cl)C2)c1 [Example 2, 2-(3-(2-chloro-4-((5-cyclopropyl-3-(2,6-dichloro-4-fluorophenyl)isoxazol-4-yl)methoxy)phenyl)-3-hydroxyazetidin-1-yl)isonicotinic Acid] | 831 | 25 | – | – | – | –
